Columns and labels:
Type in all cases: in vivo, C57BL/6J mice
DGAT2 = assay: Liver mRNA by semi-quantitative RT-PCR: DGAT2; details: HFD-fed mice, oral gavage once daily 4 weeks, AnK 10, 20, 40, Feno 250, Metf 300 mg/kg/day, vs HF group
Text: (§1) The 4-week old male C57BL/6J mice (total amount n=63) were obtained from the National Laboratory Animal Center (Taipei, Taiwan). After acclimatization for one week, all of the mice were randomly assigned into a control (CON) group and a high-fat diet (HFD) group. […] After HFD feeding for 8 weeks, the HFD group was randomly subdivided into six groups (n=9 per group) receiving different treatments and fed on HFD. […] The HF+AnK1, HF+AnK2, and HF+AnK3 groups are collectively termed AnK-treated HFD groups in the following examples. The CON mice were administered vehicle. All treatments were administered via oral gavage once daily. After administration for 4 weeks, all mice were fasted 12 hours, and blood was collected from the retro-orbital sinus under ether anesthesia. […]
(§2) Total RNA from liver tissue of mice was isolated with a Trizol Reagent (Molecular Research Center, Inc., Cincinnati, Ohio, USA) according to the manufacturer's instructions. The integrity of the extracted total RNA was examined by 2% agarose gel electrophoresis, and the RNA concentration was determined by the ultraviolet (UV) light absorbency at 260 nm and 280 nm (Spectrophotometer U-2800A, Hitachi). […]
(§3) Levels of mRNA of target genes were quantified by semi-quantitative reverse transcription polymerase chain reaction (RT-PCR). […] PCR products were analyzed by 2% agarose gel and stained with ethidium bromide.

FAS = assay: Western blotting of FAS in liver and adipose tissue; details: HFD-fed mice, AnK 10, 20, 40, Feno 250, Metf 300 mg/kg/day, vs HF group; for expression levels of FAS (protein): adipose tissue; for FAS expression levels (protein): liver
Text: The 4-week old male C57BL/6J mice (total amount n=63) were obtained from the National Laboratory Animal Center (Taipei, Taiwan). After acclimatization for one week, all of the mice were randomly assigned into a control (CON) group and a high-fat diet (HFD) group. […] After HFD feeding for 8 weeks, the HFD group was randomly subdivided into six groups (n=9 per group) receiving different treatments and fed on HFD. […] The HF+AnK1, HF+AnK2, and HF+AnK3 groups are collectively termed AnK-treated HFD groups in the following examples. The CON mice were administered vehicle. All treatments were administered via oral gavage once daily. After administration for 4 weeks, all mice were fasted 12 hours, and blood was collected from the retro-orbital sinus under ether anesthesia. At the end of the experiment, the mice were sacrificed via carbon dioxide inhalation. Liver, adipose tissue, and skeletal muscle were collected and immediately stored at −80° C. for target gene analysis.
About 0.1 g of liver tissue, skeletal muscle, or adipose tissue was used for the homogenate samples. Samples were powdered under liquid nitrogen and homogenized for 20 seconds in 500 μL buffer containing 20 mM Tris-HCl (pH 7.4 at 4° C.), 2% SDS, 5 mM EDTA, 5 mM EGTA, 1 mM dithiothreitol (DTT), 100 mM NaF, 2 mM sodium vanadate, 0.5 mM phenylmethylsulfonyl fluoride, 10 μg/mL leupeptin, and 10 μL/mL pepstatin. The total membrane fraction was used for measurement. The protein concentration in supernatant was determined with a BCA protein assay kit (Thermo Scientific, Rockford, Ill., USA). […] The membrane was blocked with 5% slim milk in Tris-buffered saline (TBS)(Amersham BioSciences, Uppsala, Sweden) containing 0.05% Tween-20 (Bio Rad, CA, USA) and incubated overnight at 4° C. with antibodies at 1:200 dilution. Subsequently, the membrane was washed three times with TBS containing 0.05% Tween-20 and incubated with secondary antibody anti-rabbit (1:1000)(Jackson ImmunoResearch Laboratories, Inc., PA, USA) for 1 hour. Immunoreactive bands were detected with ECL reagent kit (GE Healthcare BioSciences, Buckinghamshire, UK). The intensity of Western blot signals was analyzed using AlphaEase FC software (Alpha Innotech Corporation, Randburg, South Africa). The structural protein GAPDH in the samples was used as the loading control.

PPARα [1] = assay: Western blotting of hepatic PPARα; details: liver; HFD-fed mice; AnK 10, 20, 40, Feno 250, Metf 300 mg/kg/day; vs HF group
Text: as §1, with “anesthesia. At the end of the experiment, the mice were sacrificed via carbon dioxide inhalation.” for “anesthesia.”
About 0.1 g of liver tissue, skeletal muscle, or adipose tissue was used for the homogenate samples. […] The protein concentration in supernatant was determined with a BCA protein assay kit (Thermo Scientific, Rockford, Ill., USA). […] Immunoreactive bands were detected with ECL reagent kit (GE Healthcare BioSciences, Buckinghamshire, UK). The intensity of Western blot signals was analyzed using AlphaEase FC software (Alpha Innotech Corporation, Randburg, South Africa). […]

PPARα [2] = assay: Liver mRNA by semi-quantitative RT-PCR: PPARα; details: HFD-fed mice, oral gavage once daily 4 weeks, AnK 10, 20, 40, Feno 250, Metf 300 mg/kg/day, vs HF group
Text: as §1, §2, §3

[3] = test system: high-fat diet-fed C57BL/6J mouse; assay: Histopathology of liver (hepatocellular ballooning); details: grade 0 absence, 1 few cells, 2 many cells (Table 4), HFD-fed mice
Experimental: Animal studies were performed and approved under the guidelines of the Institutional Animal Care and Use Committee in Taiwan (12 Mar. 2015). The 4-week old male C57BL/6J mice (total amount n=63) were obtained from the National Laboratory Animal Center (Taipei, Taiwan). After acclimatization for one week, all of the mice were randomly assigned into a control (CON) group and a high-fat diet (HFD) group. For the following 12 weeks, the CON group (n=9) received a control diet or a low-fat diet (Diet 12450B, Research Diets, Inc., New Brunswick, N.J., USA), while the HFD group (n=54) received a high-fat diet (Diet 12451, Research Diets, New Brunswick, N.J., USA). The low-fat diet was composed of protein 20%, carbohydrate 70% and fat 10%, whereas the high-fat diet was composed of protein 20%, carbohydrate 35%, and fat 45% (of total energy, % kcal). After HFD feeding for 8 weeks, the HFD group was randomly subdivided into six groups (n=9 per group) receiving different treatments and fed on HFD. […] The HF+AnK1, HF+AnK2, and HF+AnK3 groups are collectively termed AnK-treated HFD groups in the following examples. The CON mice were administered vehicle. All treatments were administered via oral gavage once daily. After administration for 4 weeks, all mice were fasted 12 hours, and blood was collected from the retro-orbital sinus under ether anesthesia. At the end of the experiment, the mice were sacrificed via carbon dioxide inhalation. Liver, adipose tissue, and skeletal muscle were collected and immediately stored at −80° C. for target gene analysis.
Parts of visceral adipose and liver specimens were fixed with formalin (200 g/kg) neutral buffered solution and embedded in paraffin. A series of 8 μm-thick sections was cut and stained with hematoxylin and eosin. For microscopic examination, a microscope (Olympus BX51, Olympus, Tokyo, Japan) was used and the images were photographed.
On the basis of previous study, the degree of hepatocellular ballooning is defined in TABLE 4: […]

G6Pase = assay: Liver mRNA by semi-quantitative RT-PCR: G6Pase; details: HFD-fed mice, oral gavage once daily 4 weeks, AnK 10, 20, 40, Feno 250, Metf 300 mg/kg/day, vs HF group
Text: as §1, §2, §3

apoCIII = assay: Liver mRNA by semi-quantitative RT-PCR: apoCIII; details: HFD-fed mice, oral gavage once daily 4 weeks, AnK 10, 20, 40, Feno 250, Metf 300 mg/kg/day, vs HF group
Text: as §1, §2, §3

| SMILES | mRNA levels of DGAT2 (DGAT2) | expression levels of FAS (protein) (FAS) | FAS expression levels (protein) (FAS) | PPARα expression levels (protein) (PPARα [1]) | PPARα mRNA levels (PPARα [2]) | Hepatocellular ballooning Mean score ([3]; HF + AnK1: AnK 10 mg/kg/day oral gavage 4 weeks) | Hepatocellular ballooning Mean score ([3]; HF + AnK2: AnK 20 mg/kg/day oral gavage 4 weeks) | Hepatocellular ballooning Mean score ([3]; HF + AnK3: AnK 40 mg/kg/day oral gavage 4 weeks) | mRNA levels of G6Pase (G6Pase) | mRNA levels of apoCIII (apoCIII) | Hepatocellular ballooning Mean score ([3]; HF + Metf: metformin 300 mg/kg/day oral gavage 4 weeks) |
| --- | --- | --- | --- | --- | --- | --- | --- | --- | --- | --- | --- |
| C=C(CC[C@@H](C)[C@H]1CC[C@H]2C3=C(C(=O)C[C@]12C)[C@@]1(C)CC[C@@H](O)[C@](C)(O)[C@@H]1C[C@@H]3O)C(C)C(=O)O (stereo partly drawn) [AnK, 3α,4β,7β-trihydroxy-4α-methylergosta-8,24(28)-dien-11-on-25S-26-oic acid] | significantly decreased | significantly reduced | decreased | significantly increased | increased | 0.7 ± 0.2 | 0.5 ± 0.2 | 0.4 ± 0.2 | significantly decreased | significantly decreased | – |
| CN(C)C(=N)N=C(N)N [Metf, metformin, reference compound] | significantly decreased | significantly reduced | decreased | significantly increased | increased | – | – | – | significantly decreased | significantly decreased | 0.7 ± 0.2 |

Source: patent US10124012B2, “Method for treatment of hyperglycemia and hyperlipidemia” (priority 2016, dated 2018)
